Experimental findings from patent US8598202B2, “Aryl-hydroxyethylamino-pyrimidines and triazines as modulators of fatty acid amide hydrolase” (Janssen Pharmaceutica NV, priority 2008, dated 2013) are described below.

The target of assay [1] is T1, Rat FAAH-1 (Rattus norvegicus, UniProt P97612).
T1 sequence (P97612 1-579): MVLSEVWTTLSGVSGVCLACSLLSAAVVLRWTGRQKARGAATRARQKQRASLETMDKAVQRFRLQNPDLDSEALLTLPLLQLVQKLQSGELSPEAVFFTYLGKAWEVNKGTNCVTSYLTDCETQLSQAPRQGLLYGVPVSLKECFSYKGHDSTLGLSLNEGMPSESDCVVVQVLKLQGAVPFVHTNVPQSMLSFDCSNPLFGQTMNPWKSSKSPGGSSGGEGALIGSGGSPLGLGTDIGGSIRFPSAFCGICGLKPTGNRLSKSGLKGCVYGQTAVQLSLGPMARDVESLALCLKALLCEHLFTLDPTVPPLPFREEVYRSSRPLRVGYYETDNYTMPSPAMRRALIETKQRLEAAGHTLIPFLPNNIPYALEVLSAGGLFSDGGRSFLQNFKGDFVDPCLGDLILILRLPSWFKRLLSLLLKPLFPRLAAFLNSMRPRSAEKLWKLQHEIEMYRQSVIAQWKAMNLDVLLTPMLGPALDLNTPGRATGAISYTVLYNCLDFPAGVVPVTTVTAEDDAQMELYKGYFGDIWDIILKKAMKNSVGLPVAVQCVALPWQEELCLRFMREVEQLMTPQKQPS
As to the kind of experiment: Assay Method 2: rat FAAH-1 assay, 3H-anandamide hydrolysis in homogenate of SK-N-MC cells transfected with rat FAAH.

The target of assay [2] is T2, FAAH (Homo sapiens, UniProt O00519).
T2 sequence (O00519 1-579): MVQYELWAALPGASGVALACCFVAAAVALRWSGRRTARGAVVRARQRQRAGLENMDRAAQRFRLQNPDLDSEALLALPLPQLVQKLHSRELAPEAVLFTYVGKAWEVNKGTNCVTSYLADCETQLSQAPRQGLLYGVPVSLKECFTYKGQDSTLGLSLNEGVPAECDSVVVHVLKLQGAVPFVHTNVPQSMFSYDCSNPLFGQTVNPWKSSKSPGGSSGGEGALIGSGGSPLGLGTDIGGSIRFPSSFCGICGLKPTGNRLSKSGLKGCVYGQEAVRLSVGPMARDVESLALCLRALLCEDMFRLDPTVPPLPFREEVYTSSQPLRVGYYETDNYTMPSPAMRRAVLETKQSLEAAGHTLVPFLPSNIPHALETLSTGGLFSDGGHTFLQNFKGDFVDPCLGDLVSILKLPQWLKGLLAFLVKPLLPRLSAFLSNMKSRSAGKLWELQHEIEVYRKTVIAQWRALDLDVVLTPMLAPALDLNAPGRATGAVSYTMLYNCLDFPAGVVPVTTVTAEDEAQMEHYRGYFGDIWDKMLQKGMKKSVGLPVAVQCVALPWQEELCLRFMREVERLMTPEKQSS
The assay can be described thus: Assay Method 1: FAAH assay, 3H-anandamide hydrolysis in homogenate of T84 cells or SK-N-MC cells transfected with human FAAH.

Counter-ions that a name gives are not always drawn.

Usually IC50 stands for the point on the concentration scale where inhibition reaches its midpoint. A low value points to higher potency. As for `OC(CNc1cc(-c2ccc(OC(F)(F)F)cc2)ncn1)c1ccc2c(c1)OCO2` (stereo not drawn) [Example 127, 1-(1,3-Benzodioxol-5-yl)-2-[(6-{4-[(trifluoromethyl)oxy]phenyl}-pyrimidin-4-yl)amino]ethanol], the IC50 is 0.112 µM in assay [1] and 0.122 µM in assay [2].

Take `CC(O)c1ccc(-c2cc(NC[C@H](O)c3ccccc3)ncn2)cc1F` (stereo partly drawn) [Example 129, (1R)-2-({6-[3-Fluoro-4-(1-hydroxyethyl)phenyl]pyrimidin-4-yl}amino)-1-phenylethanol trifluoroacetic acid salt]: the figures for the IC50 in assay [1] and in assay [2] were 0.12 µM and 0.016 µM, respectively.

Regarding `OC(CNc1cc(-c2ccc(C(F)(F)F)c(Cl)c2)ncn1)c1cccc(OC(F)(F)F)c1` (stereo not drawn) [Example 130, 2-({6-[3-Chloro-4-(trifluoromethyl)phenyl]pyrimidin-4-yl}amino)-1-[3-(trifluoromethoxy)phenyl]ethanol trifluoroacetic acid salt], the results for the concentration for half-maximal inhibition (IC50) in assay [1] and in assay [2] were 0.015 µM and 0.12 µM, respectively.

Regarding `OC(CNc1cc(-c2ccc(C(F)(F)F)c(Cl)c2)ncn1)c1ccc(Cl)c(F)c1` (stereo not drawn) [Example 133, 1-(4-Chloro-3-fluoro-Phenyl)-2-[6-(3-chloro-4-trifluoromethyl-phenyl)-pyrimidin-4-ylamino]-ethanol trifluoroacetic acid salt], the values for the 50% inhibitory concentration (IC50) in assay [1] and in assay [2] were 0.015 µM and 0.03 µM, respectively.

As to `OC(CNc1cc(-c2ccc(C(F)(F)F)c(Cl)c2)ncn1)c1ccc(F)c(Cl)c1` (stereo not drawn) [Example 134, 1-(3-Chloro-4-fluorophenyl)-2-({6-[3-chloro-4-(trifluoromethyl)phenyl]pyrimidin-4-yl}amino)ethanol trifluoroacetic acid salt], the 50% inhibitory concentration (IC50) in assay [1] was 0.019 µM; in assay [2] it was 0.027 µM.

With `OC(CNc1cc(-c2ccc(C(F)(F)F)c(Cl)c2)ncn1)c1cccc(C(F)(F)F)c1` (stereo not drawn) [Example 135, 2-({6-[3-Chloro-4-(trifluoromethyl)phenyl]pyrimidin-4-yl}amino)-1-[3-(trifluoromethyl)phenyl]ethanol trifluoroacetic acid salt], the figures for the IC50 in assay [1] and in assay [2] were 0.016 µM and 0.1 µM, respectively.

For `O[C@@H](CNc1cc(-c2ccc(Cl)c(Cl)c2)nc(C2CC2)n1)c1ccccc1` [Example 136, (1R)-2-{[2-Cyclopropyl-6-(3,4-dichlorophenyl)pyrimidin-4-yl]amino}-1-phenylethanol], the half-inhibitory concentration (IC50) stood at 0.34 µM in assay [1] and 0.084 µM in assay [2].

Take `CC(C)c1nc(NC[C@H](O)c2ccccc2)cc(-c2ccc(Cl)c(Cl)c2)n1` [Example 137, (1R)-2-{[6-(3,4-Dichlorophenyl)-2-(1-methylethyl)pyrimidin-4-yl]amino}-1-phenylethanol]: the half-inhibitory concentration (IC50) in assay [1] worked out at 5 µM; in assay [2], 0.92 µM.

Turning to `Cc1n[nH]c2cc(-c3cc(NC[C@H](O)c4ccccc4)ncn3)ccc12` [Example 140, (1R)-2-{[6-(3-Methyl-1H-indazol-6-yl)pyrimidin-4-yl]amino}-1-phenylethanol trifluoroacetic acid salt], the IC50 in assay [1] amounted to 0.265 µM; in assay [2], 0.127 µM.

On to `CNc1nc(NC[C@H](O)c2ccccc2)cc(-c2ccc(C(F)(F)F)c(Cl)c2)n1` [Example 141, (1R)-2-({6-[3-Chloro-4-(trifluoromethyl)phenyl]-2-(methylamino)pyrimidin-4-yl}amino)-1-phenylethanol trifluoroacetic acid salt], for which the 50% inhibitory concentration (IC50) in assay [1] worked out at 0.005 µM; in assay [2], 0.012 µM.

As for `O[C@@H](CNc1cc(-c2ccc(I)cc2)ncn1)c1ccccc1` [Example 142, (1R)-2-{[6-(4-Iodophenyl)pyrimidin-4-yl]amino}-1-phenylethanol], the IC50 in assay [1] turned out to be 0.06 µM; in assay [2] it was 0.009 µM.

As for `O[C@H](CNc1cc(-c2ccc(C(F)(F)F)c(Cl)c2)ncn1)c1ccc(Cl)c(F)c1` [Example 145, (1S)-1-(4-Chloro-3-fluoro-phenyl)-2-[6-(3-chloro-4-trifluoromethyl-phenyl)-pyrimidin-4-ylamino]-ethanol], the half-inhibitory concentration (IC50) is 2 µM in assay [1] and 7 µM in assay [2].

For `O[C@@H](CNc1cc(-c2ccc(C(F)(F)F)c(Cl)c2)ncn1)c1ccc(Cl)c(F)c1` [Example 146, (1R)-1-(4-Chloro-3-fluoro-phenyl)-2-[6-(3-chloro-4-trifluoromethyl-Phenyl)-pyrimidin-4-ylamino]-ethanol], the figures for the IC50 in assay [1] and in assay [2] were 0.004 µM and 0.026 µM, respectively.

Consider `C[C@@H](Nc1cc(-c2ccc(OC(F)(F)F)cc2)ncn1)[C@@H](O)c1ccccc1` [Example 150, (1S,2R)-1-Phenyl-2-[(6-{4-[(trifluoromethyl)oxy]phenyl}pyrimidin-4-yl)amino]propan-1-ol], for which the IC50 in assay [1] was determined as 5 µM; in assay [2], 1.5 µM.

`O[C@@H](CNc1cc(-c2ccc(C(F)(F)F)cc2C(F)(F)F)ncn1)c1ccccc1` [Example 152, (1R)-2-({6-[2,4-Bis(trifluoromethyl)phenyl]pyrimidin-4-yl}amino)-1-phenylethanol trifluoroacetic acid salt]: the IC50 is more than 10 µM in assay [1] and 4 µM in assay [2].

For `Cc1nc(NC[C@H](O)c2ccccc2)cc(-c2ccc(Cl)c(Cl)c2)n1` [Example 155, (1R)-2-{[6-(3,4-Dichlorophenyl)-2-methylpyrimidin-4-yl]amino}-1-phenylethanol], the values for the half-inhibitory concentration (IC50) in assay [1] and in assay [2] were 0.27 µM and 0.06 µM, respectively.

`NCCNc1nc(NC[C@H](O)c2ccccc2)cc(-c2ccc(C(F)(F)F)c(Cl)c2)n1` [Example 157, (1R)-2-({2-[(2-Aminoethyl)amino]-6-[3-chloro-4-(trifluoromethyl)phenyl]pyrimidin-4-yl}amino)-1-phenylethanol trifluoroacetic acid salt]: the concentration for half-maximal inhibition (IC50) in assay [1] amounted to 4 µM; in assay [2], 2 µM.

In the case of `CN(C)CCNc1nc(NC[C@H](O)c2ccccc2)cc(-c2ccc(C(F)(F)F)c(Cl)c2)n1` [Example 158, (1R)-2-[(6-[3-Chloro-4-(trifluoromethyl)phenyl]-2-{[2-(dimethylamino)ethyl]amino}pyrimidin-4-yl)amino]-1-phenylethanol trifluoroacetic acid salt], the half-maximal inhibitory concentration (IC50) in assay [1] was 0.11 µM; in assay [2] it was 3.46 µM.

On to `CCNc1nc(NC[C@H](O)c2ccccc2)cc(-c2ccc(C(F)(F)F)c(Cl)c2)n1` [Example 159, (1R)-2-({6-[3-Chloro-4-(trifluoromethyl)phenyl]-2-(ethylamino)pyrimidin-4-yl}amino)-1-phenylethanol trifluoroacetic acid salt], for which the figures for the half-inhibitory concentration (IC50) in assay [1] and in assay [2] were 0.007 µM and 0.02 µM, respectively.

As for `OCCNc1nc(NC[C@H](O)c2ccccc2)cc(-c2ccc(C(F)(F)F)c(Cl)c2)n1` [Example 160, (1R)-2-({6-[3-Chloro-4-(trifluoromethyl)phenyl]-2-[(2-hydroxyethyl)amino]pyrimidin-4-yl}amino)-1-phenylethanol trifluoroacetic acid salt], the half-maximal inhibitory concentration (IC50) in assay [1] is 0.29 µM; in assay [2], 0.15 µM.

As for `O[C@@H](CNc1cc(-c2ccc(C(F)(F)F)c(Cl)c2)nc(NC2CC2)n1)c1ccccc1` [Example 162, (1R)-2-({6-[3-Chloro-4-(trifluoromethyl)phenyl]-2-(cyclopropylamino)pyrimidin-4-yl}amino)-1-phenylethanol trifluoroacetic acid salt], the half-maximal inhibitory concentration (IC50) in assay [1] worked out at 0.13 µM; in assay [2], 0.57 µM.

For `CNCCNc1nc(NC[C@H](O)c2ccccc2)cc(-c2ccc(C(F)(F)F)c(Cl)c2)n1` [Example 163, (1R)-2-[(6-[3-Chloro-4-(trifluoromethyl)phenyl]-2-{[2-(methylamino)ethyl]amino}pyrimidin-4-yl)amino]-1-phenylethanol hydrochloride salt], the concentration for half-maximal inhibition (IC50) in assay [1] and in assay [2] was 2 µM throughout.

On to `COc1nc(NC[C@H](O)c2ccccc2)cc(-c2ccc(C(F)(F)F)c(Cl)c2)n1` [Example 164, (1R)-2-({6-[3-Chloro-4-(trifluoromethyl)phenyl]-2-methoxypyrimidin-4-yl}amino)-1-phenylethanol trifluoroacetic acid salt], for which the figures for the IC50 in assay [1] and in assay [2] were 0.014 µM and 0.015 µM, respectively.

Turning to `Cc1noc2cc(-c3cc(NC[C@H](O)c4ccccc4)ncn3)ccc12` [Example 165, (1R)-2-{[6-(3-Methyl-1,2-benzisoxazol-6-yl)pyrimidin-4-yl]amino}-1-phenylethanol], the concentration for half-maximal inhibition (IC50) in assay [1] was determined as 0.019 µM; in assay [2], 0.004 µM.
